{"source": "the METLIN SMRT retention time set (Domingo-Almenara et al. 2019)"}
{"assay": "gradient 5% acetonitrile 3 min, to 50% in 2 min, to 85% in 15 min, held 3 min, 100 µL/min", "conditions": "column: Zorbax Extend-C18 2.1 x 50 mm; eluents: water / acetonitrile, 0.1% formic acid", "procedure,_shortened": "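Values are retention times taken from adduct peaks that software picked and an analyst inspected. The pure standards were run as mixtures of ~100 molecules on HPLC linked to a quadrupole time-of-flight mass spectrometer, in positive and negative ionization mode. A Zorbax Extend-C18 column (2.1 × 50 mm, 1.8 μm) was used at 100 μL/min with water and acetonitrile, each including 0.1% formic acid.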", "units": {"RP-LC retention time": "s"}}
{"smiles": "CC(=O)OC1CCN(C(=O)c2cccc(C#N)c2)CC1", "RP-LC retention time": 706}
{"smiles": "CCc1ccc(C(C)NC(=O)c2ccc3[nH]cc(C(=O)C(=O)N4CCCCCC4)c3c2)cc1", "note": "(stereo not given)", "RP-LC retention time": 936}
{"smiles": "CCn1cc(CC(=O)NCc2ccc(OC)cc2)c2cccnc21", "RP-LC retention time": 716}
{"smiles": "Cc1oc(C2CCN(C(=O)Nc3ccc(F)cc3)CC2)nc1C(=O)N1CCCC1", "RP-LC retention time": 752}
{"smiles": "Cc1cccc(CNC(=O)c2cccc(C3CCCN(C(=O)NC(C)C)C3)c2)c1", "note": "(stereo not given)", "RP-LC retention time": 894}
{"smiles": "COc1ccc(-c2cc(C(=O)Nc3ccc(F)cc3)nn2C2CCS(=O)(=O)C2)cc1", "note": "(stereo not given)", "RP-LC retention time": 930}
{"smiles": "Cc1ccc(CN2CCN(CC(=O)NC3CCN(Cc4ccccc4)CC3)C(=O)C2=O)cc1", "RP-LC retention time": 614}
{"smiles": "O=C(Nc1ccc(Cl)cc1)N1CCc2nc[nH]c2C1", "RP-LC retention time": 594}
{"smiles": "CN(C)C(=O)c1ccc2c(c1)nc(CN1CCN(C(=O)c3cccs3)CC1)n2C", "RP-LC retention time": 588}
{"smiles": "COc1ccc(C(=O)O)nc1C", "RP-LC retention time": 552}
{"smiles": "CCC(=O)Nc1cc2c(cc1S(=O)(=O)c1ccccc1)n(CC)c(=O)n2CC", "RP-LC retention time": 786}
{"smiles": "COc1ccc(CC(=O)N2CCc3cc(-c4ccno4)ccc32)cc1Cl", "RP-LC retention time": 1000}
{"smiles": "CC(=O)OCC(=O)NCCCOc1cccc(CN2CCCCC2)c1", "RP-LC retention time": 618}
{"smiles": "CCc1ccccc1NC(=O)N1CCC(n2cnnc2C2CC2)C1", "note": "(stereo not given)", "RP-LC retention time": 628}
{"smiles": "O=C(N[C@H]1CN2CCC1CC2)c1ccc(Cl)cc1", "RP-LC retention time": 630}
{"smiles": "COCCCNC(=O)c1cc2c(n(-c3ccc(C(C)C)cc3)c1=O)CCCC2=O", "RP-LC retention time": 882}
{"smiles": "CCn1ccc2sc(C)c(C(=O)N3CCN(c4ccccc4)CC3)c2c1=O", "RP-LC retention time": 773}
{"smiles": "O=C(NCCc1cccs1)C1CCN(C(=O)c2ncn3c2COC(c2ccccc2)C3)CC1", "note": "(stereo not given)", "RP-LC retention time": 738}
{"smiles": "Cn1c(=O)sc2cc(S(=O)(=O)N3CCC(C(=O)NC4CCCCCCC4)CC3)ccc21", "RP-LC retention time": 931}
{"smiles": "CCOCCCNC(=O)c1c(OCC)cc(=O)n2c1CCCCC2", "RP-LC retention time": 621}
{"smiles": "O=C(COc1ccccc1)NCC1CC(=O)N(Cc2ccc(F)cc2)C1", "note": "(stereo not given)", "RP-LC retention time": 692}
{"smiles": "Cc1ccccc1Oc1nccn2c(=O)n(CC(=O)NCc3ccccc3)nc12", "RP-LC retention time": 797}
{"smiles": "COc1ccc(-c2nc3ccc(C)cn3c2Nc2ccc(C)cc2)cc1", "RP-LC retention time": 778}
{"smiles": "CCOc1ccc(S(=O)(=O)N2CCC(C(=O)NCc3cccnc3)CC2)cc1", "RP-LC retention time": 623}
{"smiles": "COc1cc(CN2CCc3nc(N4CCN(c5ccccn5)CC4)ncc3C2)cc(OC)c1OC", "RP-LC retention time": 567}
{"smiles": "O=C1C2N=NN(Cc3nc(-c4ccccc4)no3)C2C(=O)N1c1ccc(F)cc1", "note": "(stereo not given)", "RP-LC retention time": 945}
{"smiles": "COc1ccc(C(=O)N2CCc3ccc(C(=O)NCc4ccco4)cc32)cc1", "RP-LC retention time": 795}
{"smiles": "CCCNC(=O)C1c2ccccc2CCN1C(=O)C1CC1", "note": "(stereo not given)", "RP-LC retention time": 725}
{"smiles": "O=C(NCCc1ccc(Cl)cc1)C1CCN(C(=O)c2cccn2-c2cccnc2)CC1", "RP-LC retention time": 727}
{"smiles": "CCn1ncn2cc(S(=O)(=O)Nc3ccc(C)c(F)c3)cc2c1=O", "RP-LC retention time": 909}
{"smiles": "COCCN(CC(=O)N1CCc2sccc2C1COc1ccccc1)C(=O)COC", "note": "(stereo not given)", "RP-LC retention time": 787}
{"smiles": "O=C(COc1ccc(Cl)cc1)N1CCN(c2cc(-c3ccccc3)[nH]n2)CC1", "RP-LC retention time": 814}
{"smiles": "CCn1c(C(=O)N2CCN(c3ccccn3)CC2)cc2c(-c3cccs3)nn(-c3ccccc3)c21", "RP-LC retention time": 776}
{"smiles": "CCOC(=O)c1ccc(NC(=O)Cn2c(C)nc3c(sc4nc(-c5ccccc5)ccc43)c2=O)cc1", "RP-LC retention time": 1100}
{"smiles": "O=C(NCc1ccccc1)C1CCN(S(=O)(=O)c2cc(C(=O)N3CCOCC3)cs2)CC1", "RP-LC retention time": 694}
{"smiles": "CCc1noc(NC(C)=O)c1-c1ccc(C)c(S(=O)(=O)N2CCN(c3ccccn3)CC2)c1", "RP-LC retention time": 665}
{"smiles": "COc1ccc(NC(=O)C2CCCN(c3ccc(=O)n(-c4ccc(F)cc4)n3)C2)cc1", "note": "(stereo not given)", "RP-LC retention time": 828}
{"smiles": "COC(=O)Nc1ccc(S(=O)(=O)Nc2nc(C)cc(C)n2)cc1", "RP-LC retention time": 599}
{"smiles": "Nc1c(-c2nnc(SCC(=O)N3CCOCC3)n2CC2CCCO2)sc2ncccc12", "note": "(stereo not given)", "RP-LC retention time": 641}
{"smiles": "Cc1csc(C(=O)NCC2CCN(C(=O)COc3ccccc3)CC2)c1", "RP-LC retention time": 734}
{"smiles": "COc1ccc(-c2noc(CNC(=O)c3cc(C)nc4ccccc34)n2)cc1OC", "RP-LC retention time": 652}
{"smiles": "Cn1cccc1C(=O)C(=O)N1CCN(C(c2ccccc2)c2ccccc2)CC1", "RP-LC retention time": 824}
{"smiles": "O=C(Nc1ccc(F)cc1)N1CCC(N2CCN(Cc3ccccc3)C2=O)CC1", "RP-LC retention time": 794}
{"smiles": "Cc1cccc(CN2CC(c3noc(C4CCCN4CC4CC4)n3)C2)c1", "note": "(stereo not given)", "RP-LC retention time": 526}
{"smiles": "Cc1ccc(C(=O)NCCc2c[nH]c3ccc(Cl)cc23)cc1-n1nnc2cccnc21", "RP-LC retention time": 903}
{"smiles": "Cc1ccc(N2C(=O)C3N=NN(Cc4nc(-c5cccc(C(F)(F)F)c5)no4)C3C2=O)cc1Cl", "note": "(stereo not given)", "RP-LC retention time": 1180}
{"smiles": "O=C1NC2=C(C(=O)CCC2)C(c2cccc([N+](=O)[O-])c2)N1", "note": "(stereo not given)", "RP-LC retention time": 606}
{"smiles": "Cn1c(=O)n(C)c2cc(S(=O)(=O)c3ccc(F)cc3)c(NC(=O)Cc3ccc(F)cc3)cc21", "RP-LC retention time": 874}
{"smiles": "CCc1ccc(NC(=O)c2sc(-c3cccn3CC)nc2C)cc1", "RP-LC retention time": 1260}
{"smiles": "COc1ccc(C2CC(=O)c3cnc(Nc4nc(C)c5cc(C)c(C)cc5n4)nc3C2)cc1", "note": "(stereo not given)", "RP-LC retention time": 775}
{"smiles": "CCCn1c(=O)c(C)nc2cc(-c3noc(-c4ccc(OC)c(OC)c4)n3)ccc21", "RP-LC retention time": 1090}
{"smiles": "CN(C)C(=O)c1ccc2c(c1)nnn2CCNC(=O)Nc1ccc(Cl)cc1", "RP-LC retention time": 678}
{"smiles": "COC(=O)C1=C(C)NC(C)=C(C(=O)OC2CCCN(Cc3ccccc3)C2)C1c1cccc([N+](=O)[O-])c1", "note": "(stereo not given)", "RP-LC retention time": 844}
{"smiles": "O=C(NCCn1c(=O)n(Cc2ccc(F)cc2)c2cccnc21)c1cccs1", "RP-LC retention time": 772}
{"smiles": "CCN(C(=O)Cn1c(CNC(=O)c2ccco2)nc2ccccc21)c1ccccc1", "RP-LC retention time": 687}
{"smiles": "Cc1ccc(C)c(N2CCN(c3cc(C(=O)O)c4cc(NS(C)(=O)=O)ccc4n3)CC2)c1", "RP-LC retention time": 1110}
{"smiles": "Cc1cc(N2CCOCC2)nc(N2CCN(C(=O)c3c(F)cccc3F)CC2)n1", "RP-LC retention time": 1050}
{"smiles": "CCC(=O)N(CC(=O)N(Cc1ccc2c(c1)OCO2)Cc1sccc1C)CC1CCCO1", "note": "(stereo not given)", "RP-LC retention time": 864}
{"smiles": "CC1=C(c2ccc(C)c(C)c2)S(=O)(=O)N=C1N1CCC(NC(=O)C2CCC2)CC1", "RP-LC retention time": 853}
{"smiles": "O=C(NCCN1CCOCC1)c1nnc(-c2ccc(S(=O)(=O)N3CCOCC3)cc2)o1", "RP-LC retention time": 578}
{"smiles": "COc1ccc2[nH]c(=O)c(CCC(=O)N3CCN(c4ccccn4)CC3)cc2c1", "RP-LC retention time": 568}
{"smiles": "CCCCN1CCN(S(=O)(=O)c2cc(-c3nnc(CC)o3)co2)CC1", "RP-LC retention time": 608}
{"smiles": "Cc1cccc(OCc2nc(CCN(C)C(=O)NC3CCCC3)no2)c1", "RP-LC retention time": 894}
{"smiles": "CCn1nccc1C(=O)NC1CCN(C2=NS(=O)(=O)C(c3ccccc3)=C2C)CC1", "RP-LC retention time": 764}
{"smiles": "Cc1cc(C)n2c(Nc3ccc(C(C)C)cc3)c(-c3cccc(Br)c3)nc2n1", "RP-LC retention time": 1000}
